Laboratory results published in patent publication US6812015B1, “Histidine protein-phosphatase” (Merck Patent Gesellschaft, priority 1999, dated 2004).
Like-named read-outs stand apart in the source and are kept apart here.

Assays:
histidine phosphatase = experiment: Reagents affecting histidine phosphatase activity (dephosphorylation of 32P-CheA); type: biochemical, rabbit
Protocol: (§1) The activity of the soluble histidine phosphatase is determined from the dephosphorylation of ^32P-labelled histidine-phosphorylated protein (CheA) as substrate. CheA is a recombinant bacterial histidine autokinase (Bilwes A M, Alex L A, Crane B R, Simon M I (1999) Cell 96:131-141); the C-terminal kinase domain phosphorylates the N-terminal His48. […] Detection on the one hand via ammonium molybdate, and on the other hand by autoradiography (FIG. 2).
(§2) The substrate (10 μl of ^32P-CheA) is mixed with […] of assay buffer (100 mM triethanolamine/hydrochloric acid pH 8.0, 0.1% 2-mercaptoethanol, 0.02% sodium nitrite) and the enzyme solution. The reaction takes place at 37° C. in 30 min. […] After a centrifugation (5 min at 15,800 g), the supernatant is removed and measured in a scintillation counter.

[1] = biological target: histidine protein phosphatase purified from rabbit liver (rabbit) (UniProt P83468); experiment: cell-based or functional assay
[2] = test system: histidine protein phosphatase; experiment: Hydrolysis of substrates by the novel histidine protein phosphatase (specificity); type: biochemical, rabbit
Protocol: as §1, §2

[3] = biological target: [gamma-32P] His-nucleoside diphosphate kinase
[4] = biological target: [gamma-32P] Ser/Thr-Casein
[5] = biological target: 32P-labelled histidine-phosphorylated CheA (recombinant bacterial histidine autokinase)
[6] = type: physicochemical, rabbit; details: in the crude homogenate and in the partially purified fractions

[Mg+2] [Mg^2+]
Activity (%) (histidine phosphatase; reagent concentration 1 mM): 142%
Activity (%) (histidine phosphatase; reagent concentration 10 mM): 226%

Inhibitor protein I1
Activity (%) of histidine phosphatase with 1 nM reagent [1]: 120%

CO[C@H]([C@H](O)CC(=O)[C@@H](C)[C@@H](O)CC[C@@H](C)[C@@H]1O[C@]2(CC[C@@H](C)[C@H](CC[C@H](C)C(C)=O)O2)CC[C@@H]1C)[C@H](OC(=O)C[C@@H](O)C1=C(C)C(=O)OC1=O)C(C)C [Tautomycin]
Activity (%) (histidine phosphatase; reagent concentration 0.5 nM): 90%

C=C1[C@@H](O)[C@@H]2O[C@]3(CC[C@H](/C=C/[C@@H](C)[C@@H]4CC(C)=C[C@@]5(O[C@H](C[C@@](C)(O)C(=O)O)CC[C@H]5O)O4)O3)CC[C@H]2O[C@@H]1[C@@H](O)C[C@H](C)[C@H]1O[C@@]2(CCCCO2)CC[C@H]1C [Okadaic acid]
Activity (%) (histidine phosphatase; reagent concentration 10 μM): 108%
Inhibition of histidine phosphatase activity (histidine phosphatase; text statement referring to Table 2): not being inhibited

[O]=[Mo](=[O])([O-])[O-] [Molybdate]
Activity (%) (histidine phosphatase; 10 µM): 71%

[O]=[V]([O-])([O-])[O-] [Vanadate]
Inhibition of histidine phosphatase activity (histidine phosphatase): not being inhibited
Activity (%) (histidine phosphatase; 10 µM): 62%

[Ca+2] [Ca^2+]
Activity (%) (histidine phosphatase; reagent concentration 1 mM): 165%
Activity (%) (histidine phosphatase; reagent concentration 10 mM): 240%

Microcystin
Activity (%) (histidine phosphatase; 0.005 µM): 110%

O=[N+]([O-])c1ccc(OP(=O)(O)O)cc1 [p-nitrophenyl phosphate]
Hydrolysis by the histidine phosphatase [2]: did not hydrolyze

O=C(O)CN(CCOCCOCCN(CC(=O)O)CC(=O)O)CC(=O)O [EGTA]
Activity (%) (histidine phosphatase; reagent concentration 5 mM): 91%

B1: histidine protein phosphatase purified from rabbit liver (protein)
chain: AAAGLAQIPDVDIDSDGVFKYVLIRVHAAPPSEAPGGESKDIVRGYKWAEYHADIYDKVSGELQKKGHDCECLGGGRISHQSQDRKIHVYGYSMGYGRAQHSVSTEKIRAKYPDYEVTWADDGY
Hydrolysis by the novel histidin protein phosphatase [3]: -
Hydrolysis by the novel histidin protein phosphatase [4]: -
Hydrolysis by the novel histidin protein phosphatase [5]: +
histidine dephosphorylation of 32P-phosphorylated CheA [5]: The purified protein shows time-, temperature-, pH- and protein-dependent histidine dephosphorylation of the 32P-phosphorylated CheA
storage stability [6]: shows storage stability
